From ChEMBL document CHEMBL1909046, “DrugMatrix in vitro pharmacology data” come the findings set out here.

The target in series [1] is Mitogen-activated protein kinase 1 (Homo sapiens, UniProt P28482). Briefly: DRUGMATRIX: Protein Serine/Threonine Kinase, ERK2 enzyme inhibition (substrate: Myelin Basic Protein). On the set-up: species or system Escherichia coli. As to conditions: Not Active = under 50% inhibition at 10 µM.
Series [2] addresses T1, Alpha-1B adrenergic receptor (Rattus norvegicus, UniProt P15823).
T1 sequence (P15823 whole entry): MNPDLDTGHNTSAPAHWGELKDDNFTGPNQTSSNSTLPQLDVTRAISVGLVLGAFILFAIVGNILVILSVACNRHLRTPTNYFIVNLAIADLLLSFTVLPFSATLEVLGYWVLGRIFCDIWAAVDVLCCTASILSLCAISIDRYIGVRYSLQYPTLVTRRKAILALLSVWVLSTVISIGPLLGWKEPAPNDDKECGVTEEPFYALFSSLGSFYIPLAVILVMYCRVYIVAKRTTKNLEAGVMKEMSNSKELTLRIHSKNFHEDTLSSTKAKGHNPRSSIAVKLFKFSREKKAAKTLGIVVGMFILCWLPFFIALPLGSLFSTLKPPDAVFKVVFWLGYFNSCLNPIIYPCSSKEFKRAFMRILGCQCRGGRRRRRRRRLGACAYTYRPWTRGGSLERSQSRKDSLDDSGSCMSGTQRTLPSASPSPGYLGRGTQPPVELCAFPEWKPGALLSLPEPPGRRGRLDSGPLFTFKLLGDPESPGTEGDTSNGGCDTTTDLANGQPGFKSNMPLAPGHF
Briefly: DRUGMATRIX: Alpha-1B adrenergic receptor radioligand binding (ligand: prazosin). Type of series: cell membranes, Wistar, Liver, Membrane. The following applies: Not Active = under 50% inhibition at 10 µM.

The nature of series [3]: DRUGMATRIX: Leukotriene, BLT (LTB4) radioligand binding (ligand: [3H]LTB4). As to conditions: u-937; Not Active = under 50% inhibition at 10 µM. It is filed as cell membranes, Membrane.
In series [4] the target is Protein phosphatase 3 catalytic subunit alpha (Homo sapiens, UniProt Q08209). More on the design: species or system Escherichia coli.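 Note: inhibition of calcineurin (PP2B) enzyme activity, measured with DiFMUP as the substrate; in other assays of this panel Not Active means under 50% inhibition at 10 µM.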
The next series deals with T2, Progesterone receptor (Bos taurus, UniProt Q690N0).
T2 sequence (Q690N0 whole entry): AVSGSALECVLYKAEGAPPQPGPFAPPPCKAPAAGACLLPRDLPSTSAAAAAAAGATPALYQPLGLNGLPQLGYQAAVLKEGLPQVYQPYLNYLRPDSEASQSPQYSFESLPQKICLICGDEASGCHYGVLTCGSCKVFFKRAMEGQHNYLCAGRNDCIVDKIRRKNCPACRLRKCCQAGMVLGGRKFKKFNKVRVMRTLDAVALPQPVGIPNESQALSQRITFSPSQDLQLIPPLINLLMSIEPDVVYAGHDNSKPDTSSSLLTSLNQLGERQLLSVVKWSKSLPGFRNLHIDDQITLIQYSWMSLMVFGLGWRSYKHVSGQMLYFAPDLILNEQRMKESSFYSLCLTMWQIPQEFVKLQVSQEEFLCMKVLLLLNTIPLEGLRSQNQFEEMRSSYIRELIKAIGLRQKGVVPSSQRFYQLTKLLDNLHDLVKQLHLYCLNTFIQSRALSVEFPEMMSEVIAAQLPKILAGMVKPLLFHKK
The experiment in a line: DRUGMATRIX: Progesterone radioligand binding (ligand: [3H] R-5020). Type of series: tissue-based, Uterus. The following applies: Not Active = under 50% inhibition at 10 µM.

The target in series [5] is C-C chemokine receptor type 5 (Homo sapiens, UniProt P51681). Type of series: cell membranes, Membrane. The following applies: hek293. Note: in other assays of this panel Not Active means under 50% inhibition at 10 µM.
A further series deals with Cytochrome P450 3A4 (Homo sapiens, UniProt P08684). The following applies: bti-tn-5b1-4.
Cytochrome P450 3A4, sequence (P08684 whole entry): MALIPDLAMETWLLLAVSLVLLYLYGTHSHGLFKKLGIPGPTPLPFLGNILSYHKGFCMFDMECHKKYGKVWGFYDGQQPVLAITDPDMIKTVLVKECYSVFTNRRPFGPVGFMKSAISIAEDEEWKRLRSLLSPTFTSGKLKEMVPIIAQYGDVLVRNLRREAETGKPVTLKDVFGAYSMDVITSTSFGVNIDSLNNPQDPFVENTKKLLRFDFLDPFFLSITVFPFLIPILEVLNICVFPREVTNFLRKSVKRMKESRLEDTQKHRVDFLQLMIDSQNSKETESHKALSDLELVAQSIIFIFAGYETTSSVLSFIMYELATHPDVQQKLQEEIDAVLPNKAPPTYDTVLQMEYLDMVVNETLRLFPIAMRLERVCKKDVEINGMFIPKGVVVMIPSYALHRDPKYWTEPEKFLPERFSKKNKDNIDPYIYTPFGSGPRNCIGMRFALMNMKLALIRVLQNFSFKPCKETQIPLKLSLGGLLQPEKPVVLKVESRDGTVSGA

C-C chemokine receptor type 5, sequence (P51681 whole entry): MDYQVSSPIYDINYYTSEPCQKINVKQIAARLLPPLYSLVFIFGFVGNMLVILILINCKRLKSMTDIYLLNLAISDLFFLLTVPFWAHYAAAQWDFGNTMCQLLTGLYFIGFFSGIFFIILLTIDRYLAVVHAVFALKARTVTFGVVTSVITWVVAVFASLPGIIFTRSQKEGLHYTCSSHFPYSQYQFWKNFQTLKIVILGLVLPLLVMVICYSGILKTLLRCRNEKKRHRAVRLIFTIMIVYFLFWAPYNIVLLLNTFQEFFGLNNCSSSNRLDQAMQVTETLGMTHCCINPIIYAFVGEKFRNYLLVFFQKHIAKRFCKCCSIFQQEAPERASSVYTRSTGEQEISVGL
Mitogen-activated protein kinase 1, sequence (P28482 whole entry): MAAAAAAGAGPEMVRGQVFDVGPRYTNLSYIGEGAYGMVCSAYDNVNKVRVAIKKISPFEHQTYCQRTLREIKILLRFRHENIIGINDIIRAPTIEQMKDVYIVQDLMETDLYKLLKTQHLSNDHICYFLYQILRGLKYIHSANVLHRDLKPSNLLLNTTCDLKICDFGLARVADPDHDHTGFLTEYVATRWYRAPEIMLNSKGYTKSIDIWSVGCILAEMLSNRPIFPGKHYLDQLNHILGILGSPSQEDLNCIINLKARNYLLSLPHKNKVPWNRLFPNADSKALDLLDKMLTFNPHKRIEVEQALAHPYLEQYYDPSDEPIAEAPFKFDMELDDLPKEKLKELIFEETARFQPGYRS

As to `Cc1c(C)c2c(c(C)c1O)CCC(C)(CN1CCN(c3cc(N4CCCC4)nc(N4CCCC4)n3)CC1)O2` (stereo not drawn), the IC50 result (in series [1]; in series [2]; in series [3]; in series [4]; on Progesterone receptor; in series [5]) was “Not Active” in each case. Besides, the Ki – broadly, a measure of affinity in units of concentration, obtained from inhibition or displacement – in series [3] is reported as “Not Active”.
For the compound `COc1ccc(CCN(C)CCCC(C#N)(c2ccc(OC)c(OC)c2)C(C)C)cc1OC` (stereo not drawn), the IC50 result (in series [1]; in series [3]; in series [4]; on Progesterone receptor; on Cytochrome P450 3A4; in series [5]) was “Not Active” throughout. In addition, the Ki result (in series [3]; on Cytochrome P450 3A4) was “Not Active” throughout.
Turning to `CC(C)Cc1ccc([C@@H](C)C(=O)O)cc1` [(R)-IBUPROPHEN], the IC50 entry (in series [1]; in series [2]; in series [3]; in series [4]; on Progesterone receptor; at Cytochrome P450 3A4) was “Not Active” in each case. In addition, in series [5], the IC50 – broadly, the concentration that inhibits the measured activity by half – is “Not Active”. The Ki result (in series [3]; at Cytochrome P450 3A4) was “Not Active” throughout.
On to `CN(C)CCOC(c1ccccc1)c1ccccc1` [DIPHENHYDRAMINE], for which the IC50 entry (in series [1]; in series [4]; on Progesterone receptor; in series [5]) was “Not Active” in each case.
In the case of `Clc1ccc(COC(Cn2ccnc2)c2ccc(Cl)cc2Cl)cc1` (stereo not drawn) [ECONAZOLE], the IC50 result in series [1] is “Not Active”; in series [4], “Not Active”; at Progesterone receptor (read-out: IC50), 10200 nM; in series [5] it was “Not Active”. Moreover, the Ki at Progesterone receptor (read-out: Ki) came out at 1330 nM.
Take `CCN(CC)CCOc1ccc(/C(=C(/Cl)c2ccccc2)c2ccccc2)cc1` [ENCLOMIPHENE]: the IC50 result (in series [1]; in series [4]; on Progesterone receptor; against Cytochrome P450 3A4; in series [5]) was “Not Active” throughout. At Cytochrome P450 3A4, the Ki entry is “Not Active”.
With `Fc1ccc(C(c2ccc(F)cc2)N2CCN(C/C=C/c3ccccc3)CC2)cc1` [FLUNARIZINE], the IC50 result (in series [1]; in series [4]; at Progesterone receptor; against Cytochrome P450 3A4; in series [5]) was “Not Active” each time. At Cytochrome P450 3A4, the Ki entry was “Not Active”.
Regarding `CNCCC(Oc1ccc(C(F)(F)F)cc1)c1ccccc1` (stereo not drawn) [FLUOXETINE], the IC50 result (in series [1]; in series [4]; on Progesterone receptor; on Cytochrome P450 3A4; in series [5]) was “Not Active” in each case. Moreover, the Ki entry on Cytochrome P450 3A4 was “Not Active”.
For the compound `Cc1ccc(NC(=O)c2ccc(CN3CCN(C)CC3)cc2)cc1Nc1nccc(-c2cccnc2)n1` [IMATINIB], the IC50 entry (in series [4]; at Progesterone receptor; in series [5]) was “Not Active” throughout.
With `CC(C)Oc1ccc2c(=O)c(-c3ccccc3)coc2c1` [IPRIFLAVONE], the IC50 result (in series [1]; in series [2]; in series [3]; in series [4]; at Progesterone receptor; against Cytochrome P450 3A4) was “Not Active” in each case. Further, the IC50 entry in series [5] is given as “Not Active”. The Ki entry (in series [3]; at Cytochrome P450 3A4) was “Not Active” each time.
In the case of `CC(C)NCC(O)c1ccc(O)c(O)c1` (stereo not drawn) [ISOPROTERENOL], the IC50 entry (in series [1]; in series [2]; in series [3]; in series [4]; on Progesterone receptor; against Cytochrome P450 3A4) was “Not Active” each time. Also, the concentration for half-maximal inhibition (IC50) result in series [5] is “Not Active”. Besides, the Ki entry (in series [3]; at Cytochrome P450 3A4) was “Not Active” each time.
With `CNC1(c2ccccc2Cl)CCCCC1=O` (stereo not drawn) [KETAMINE], the IC50 result (in series [1]; in series [2]; in series [3]; in series [4]; on Progesterone receptor; on Cytochrome P450 3A4) was “Not Active” throughout. Besides, the IC50 entry in series [5] was “Not Active”. The Ki entry (in series [3]; on Cytochrome P450 3A4) was “Not Active” throughout.
As to `N#Cc1ccc(C(c2ccc(C#N)cc2)n2cncn2)cc1` [LETROZOLE], the IC50 result (in series [1]; in series [2]; in series [3]; in series [4]; at Progesterone receptor; against Cytochrome P450 3A4) was “Not Active” in each case. Further, the IC50 entry in series [5] is “Not Active”. The Ki entry (in series [3]; on Cytochrome P450 3A4) was “Not Active” in each case.
With `CCN1CCC[C@H]1CNC(=O)c1cc(S(N)(=O)=O)ccc1OC` [LEVOSULPIRIDE], the IC50 entry (in series [1]; in series [2]; in series [3]; in series [4]; on Progesterone receptor; at Cytochrome P450 3A4) was “Not Active” each time. In series [5], the IC50 result was “Not Active”. Moreover, the Ki entry (in series [3]; at Cytochrome P450 3A4) was “Not Active” each time.
In the case of `CCN(CC)CC(=O)Nc1c(C)cccc1C` [LIDOCAINE], the IC50 result (in series [1]; in series [2]; in series [3]; in series [4]; at Progesterone receptor; in series [5]) was “Not Active” throughout. The inhibition constant Ki result in series [3] is given as “Not Active”.
Consider `CO[C@@H]1[C@@H](OC)[C@H](C)[C@@](O)(CC(=O)O)O[C@H]1[C@H](C)[C@H]1O[C@@]2(CC[C@@](C)([C@H]3CC[C@@](C)([C@@H]4O[C@@H]([C@H]5O[C@](C)(O)[C@H](C)C[C@@H]5C)C[C@@H]4O[C@@H]4C[C@H](OC)[C@@H](OC)[C@H](C)O4)O3)O2)C[C@H](O)[C@H]1C` [MADURAMICIN ACID], for which the IC50 entry (in series [1]; in series [3]; in series [4]; on Progesterone receptor; against Cytochrome P450 3A4; in series [5]) was “Not Active” throughout. Moreover, the Ki entry (in series [3]; on Cytochrome P450 3A4) was “Not Active” throughout.
Regarding `CO[C@H]1/C=C/O[C@@]2(C)Oc3c(C)c(O)c4c(O)c(c(/C=N/N5CCN(C6CCCC6)CC5)c(O)c4c3C2=O)NC(=O)/C(C)=C\C=C\[C@H](C)[C@H](O)[C@@H](C)[C@@H](O)[C@@H](C)[C@H](OC(C)=O)[C@@H]1C` [RIFAPENTINE], the IC50 entry (in series [1]; in series [2]; in series [3]; in series [4]; on Progesterone receptor; in series [5]) was “Not Active” each time. In addition, the Ki result in series [3] is given as “Not Active”.
As to `CN[C@H]1CC[C@@H](c2ccc(Cl)c(Cl)c2)c2ccccc21` [SERTRALINE], the IC50 result (in series [1]; in series [4]; at Progesterone receptor; against Cytochrome P450 3A4; in series [5]) was “Not Active” in each case. Besides, the inhibitory constant (Ki) result at Cytochrome P450 3A4 is given as “Not Active”.
Regarding `COc1cc2nc(N3CCN(C(=O)C4CCCO4)CC3)nc(N)c2cc1OC` (stereo not drawn) [TERAZOSIN], the concentration for half-maximal inhibition (IC50) result in series [1] was “Not Active”; in series [2] (read-out: IC50), 6.03 nM; in series [3] it was “Not Active”; in series [4], “Not Active”; in series [5], “Not Active”. In addition, the values for the Ki in series [2] (read-out: Ki) and in series [3] were 3.33 nM and “Not Active”, respectively.
In the case of `CN(C/C=C/C#CC(C)(C)C)Cc1cccc2ccccc12` [TERBINAFINE], the IC50 result (in series [1]; in series [2]; in series [3]; in series [4]; at Progesterone receptor; in series [5]) was “Not Active” throughout. The Ki entry in series [3] is on record as “Not Active”.
For `CCCCNc1ccc(C(=O)OCCN(C)C)cc1` [TETRACAINE], the IC50 entry (in series [1]; in series [2]; in series [3]; in series [4]; at Progesterone receptor; in series [5]) was “Not Active” in each case. The Ki entry in series [3] was “Not Active”.
